Among the data in patent publication US20260062443A1 (ALEXION PHARMACEUTICALS, INC., priority 2022, published 2026) are IC50 values, retold here.

pIC50: −log10 of the molar value.

As a reminder, the pIC50 is the negative decadic logarithm of the IC50, by convention in mol/L.

The experiment concerns the target T1, Human complement C1s enzyme (Homo sapiens, UniProt P09871).
T1 sequence (P09871 438-688 limits assumed): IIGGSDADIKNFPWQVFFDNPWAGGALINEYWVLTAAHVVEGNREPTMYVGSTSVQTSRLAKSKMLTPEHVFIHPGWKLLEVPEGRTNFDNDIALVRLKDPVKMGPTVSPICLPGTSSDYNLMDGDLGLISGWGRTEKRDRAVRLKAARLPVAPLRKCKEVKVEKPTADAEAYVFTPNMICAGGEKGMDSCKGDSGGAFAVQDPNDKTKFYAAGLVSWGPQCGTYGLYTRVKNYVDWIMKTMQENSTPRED
T1 sequence (P09871 16-437 partner limits assumed): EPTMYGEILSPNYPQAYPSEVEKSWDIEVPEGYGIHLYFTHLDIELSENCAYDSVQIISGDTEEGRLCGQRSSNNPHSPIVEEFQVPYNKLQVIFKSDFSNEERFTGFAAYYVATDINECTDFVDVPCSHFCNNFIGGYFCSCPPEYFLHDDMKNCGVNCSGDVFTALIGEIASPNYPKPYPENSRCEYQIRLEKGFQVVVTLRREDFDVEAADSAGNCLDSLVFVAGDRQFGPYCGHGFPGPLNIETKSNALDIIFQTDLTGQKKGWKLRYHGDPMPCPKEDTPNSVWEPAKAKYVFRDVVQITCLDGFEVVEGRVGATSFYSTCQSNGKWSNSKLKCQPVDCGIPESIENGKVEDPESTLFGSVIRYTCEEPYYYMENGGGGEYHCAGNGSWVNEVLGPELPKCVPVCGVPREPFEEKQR
The experiment in a line: Human C1s enzyme assay. Type of experiment: biochemical. To be noted: human complement C1s enzyme 1.16 nM, substrate Z-L-Lys-SBzl 100 μM, 5 min preincubation; read-out: IC50 (Stars), C1s Inhibiting Activity. The method, boiled down:
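IC50 from nonlinear regression of reaction rates versus compound concentration, with rates taken from A405 recorded at 30 s intervals over 30 min after adding 100 μM Z-L-Lys-SBzl plus 100 μM DTNB. Enzyme was human C1s purified from serum, 1.16 nM, given 5 min compound preincubation at room temperature, pH 7.5 Tris/1 M NaCl.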

Regarding `O=C(NCC(=O)N1C[C@H](OC(F)F)C[C@H]1C(=O)NCc1cc2cnccc2[nH]1)c1ccc(-c2ccccn2)s1` [Compound 381, (2S,4R)-4-(difluoromethoxy)-1-[2-[[5-(2-pyridyl)thiophene-2-carbonyl]amino]acetyl]-N-(1H-pyrrolo[3,2-c]pyridin-2-ylmethyl)pyrrolidine-2-carboxamide], the pIC50 was above 7.00.

Regarding `COc1cccc(C(=O)NCC(=O)N2C[C@H](OC(F)F)C[C@H]2C(=O)NCc2cc3cnccc3[nH]2)c1` [Compound 382, (2S,4R)-N-((1H-pyrrolo[3,2-c]pyridin-2-yl)methyl)-4-(difluoromethoxy)-1-((3-methoxybenzoyl)glycyl) pyrrolidine-2-carboxamide], the pIC50 was 6.00 to 7.00.

For `O=C(NCC(=O)N1C[C@H](OC(F)F)C[C@H]1C(=O)NCc1cc2cnccc2[nH]1)c1ccc(OC2CCCCC2)cc1` [Compound 383, (2S,4R)-N-((1H-pyrrolo[3,2-c]pyridin-2-yl)methyl)-1-((4-(cyclohexyloxy)benzoyl)glycyl)-4-(difluoromethoxy)pyrrolidine-2-carboxamide], the negative-log IC50 (pIC50) is above 7.00.

Regarding `COc1ccc(C(=O)NCC(=O)N2C[C@H](OC(F)F)C[C@H]2C(=O)NCc2cc3cnccc3[nH]2)cc1` [Compound 384, (2S,4R)-N-((1H-pyrrolo[3,2-c]pyridin-2-yl)methyl)-4-(difluoromethoxy)-1-((4-methoxybenzoyl)glycyl) pyrrolidine-2-carboxamide], the pIC50 was below 6.00.

Take `Cc1ccsc1Oc1cccc(C(=O)NCC(=O)N2C[C@H](OC(F)F)C[C@H]2C(=O)NCc2cc3cnccc3[nH]2)c1` [Compound 385, (2S,4R)-N-((1H-pyrrolo[3,2-c]pyridin-2-yl)methyl)-4-(difluoromethoxy)-1-((3-((3-methylthiophen-2-yl)oxy)benzoyl)glycyl) pyrrolidine-2-carboxamide]: the pIC50 is above 7.00.
